Assay results published in patent US8168651B2, “Protein kinase modulators” (Cylene Pharmaceuticals, Inc., priority 2008, dated 2012).

Columns and labels:
Experiment in all cases: Standardized radiometric kinase assays, percentage of activity at 0.5 μM;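 note: Read-out is ³³P-labelled substrate protein phosphorylated by each kinase, captured on filters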
[1] = target: each individual kinase of the panel (Homo sapiens, UniProt Q16566)
[2] = target: each individual kinase of the panel (Homo sapiens, UniProt O15146)
Sequence of each individual kinase of the panel (Homo sapiens, UniProt O15146) (O15146 24-869 limits assumed): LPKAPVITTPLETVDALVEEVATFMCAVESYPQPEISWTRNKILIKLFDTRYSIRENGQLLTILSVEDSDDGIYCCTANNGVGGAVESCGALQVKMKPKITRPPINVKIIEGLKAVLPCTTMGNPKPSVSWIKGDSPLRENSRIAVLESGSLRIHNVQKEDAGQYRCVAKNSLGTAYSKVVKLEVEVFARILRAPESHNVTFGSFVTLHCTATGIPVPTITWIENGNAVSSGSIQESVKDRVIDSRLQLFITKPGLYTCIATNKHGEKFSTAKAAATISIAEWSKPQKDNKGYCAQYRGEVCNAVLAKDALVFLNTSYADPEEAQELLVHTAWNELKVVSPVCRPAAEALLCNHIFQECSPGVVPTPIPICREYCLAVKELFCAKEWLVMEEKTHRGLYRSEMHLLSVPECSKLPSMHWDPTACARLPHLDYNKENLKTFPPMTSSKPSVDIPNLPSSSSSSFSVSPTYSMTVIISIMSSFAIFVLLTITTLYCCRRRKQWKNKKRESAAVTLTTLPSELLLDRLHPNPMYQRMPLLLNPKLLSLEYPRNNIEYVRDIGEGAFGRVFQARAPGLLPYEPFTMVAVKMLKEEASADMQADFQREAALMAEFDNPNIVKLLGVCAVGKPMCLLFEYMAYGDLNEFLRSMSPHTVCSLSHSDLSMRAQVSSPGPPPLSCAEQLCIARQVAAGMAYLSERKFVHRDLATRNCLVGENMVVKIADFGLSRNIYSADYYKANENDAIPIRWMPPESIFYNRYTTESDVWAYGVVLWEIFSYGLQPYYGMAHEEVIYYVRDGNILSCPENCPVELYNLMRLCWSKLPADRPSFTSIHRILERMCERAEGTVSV

[3] = target: each individual kinase of the panel (Homo sapiens, UniProt P78362)
[4] = target: each individual kinase of the panel (Homo sapiens, UniProt Q9Y243)
Sequence of each individual kinase of the panel (Homo sapiens, UniProt Q9Y243) (Q9Y243 2-479 limits assumed): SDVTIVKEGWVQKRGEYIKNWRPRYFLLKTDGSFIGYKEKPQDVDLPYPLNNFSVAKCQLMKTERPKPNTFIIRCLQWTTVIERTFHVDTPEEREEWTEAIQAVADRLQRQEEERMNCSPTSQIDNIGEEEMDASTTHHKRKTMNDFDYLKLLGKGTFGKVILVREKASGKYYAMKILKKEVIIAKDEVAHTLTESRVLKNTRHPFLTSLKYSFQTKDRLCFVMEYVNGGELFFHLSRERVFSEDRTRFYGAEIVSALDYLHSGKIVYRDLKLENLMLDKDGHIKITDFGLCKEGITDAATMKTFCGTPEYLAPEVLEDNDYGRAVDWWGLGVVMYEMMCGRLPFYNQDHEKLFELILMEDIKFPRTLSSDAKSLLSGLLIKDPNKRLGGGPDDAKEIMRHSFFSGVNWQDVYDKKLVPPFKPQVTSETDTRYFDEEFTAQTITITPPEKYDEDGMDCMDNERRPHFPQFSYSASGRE

[5] = target: each individual kinase of the panel (Homo sapiens, UniProt O96017, I157T)
[6] = target: each individual kinase of the panel (Homo sapiens, UniProt Q9BYT3)
[7] = target: each individual kinase of the panel (Homo sapiens, UniProt Q06187)
Sequence of each individual kinase of the panel (Homo sapiens, UniProt Q06187) (Q06187 2-659 limits assumed): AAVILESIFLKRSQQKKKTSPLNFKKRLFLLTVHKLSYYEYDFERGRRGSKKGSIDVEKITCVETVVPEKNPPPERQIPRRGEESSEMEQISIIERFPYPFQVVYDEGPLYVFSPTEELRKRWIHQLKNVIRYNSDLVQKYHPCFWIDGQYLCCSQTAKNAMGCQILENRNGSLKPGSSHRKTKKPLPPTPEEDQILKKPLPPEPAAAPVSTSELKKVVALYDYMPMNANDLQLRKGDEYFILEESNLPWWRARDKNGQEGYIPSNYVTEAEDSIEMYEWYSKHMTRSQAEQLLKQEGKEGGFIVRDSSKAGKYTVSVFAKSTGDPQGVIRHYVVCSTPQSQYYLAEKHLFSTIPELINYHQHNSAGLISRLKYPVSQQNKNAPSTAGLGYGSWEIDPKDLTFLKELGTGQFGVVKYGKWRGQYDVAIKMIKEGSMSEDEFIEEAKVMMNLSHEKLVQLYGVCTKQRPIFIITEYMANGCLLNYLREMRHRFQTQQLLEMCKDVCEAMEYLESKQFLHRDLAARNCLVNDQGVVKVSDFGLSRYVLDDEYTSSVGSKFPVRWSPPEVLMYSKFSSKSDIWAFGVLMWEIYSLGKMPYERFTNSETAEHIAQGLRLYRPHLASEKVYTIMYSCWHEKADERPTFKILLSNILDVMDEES

[8] = target: each individual kinase of the panel (Homo sapiens, UniProt P21802, N549H)
Sequence of each individual kinase of the panel (Homo sapiens, UniProt P21802, N549H) (P21802 22-821 N549H limits assumed): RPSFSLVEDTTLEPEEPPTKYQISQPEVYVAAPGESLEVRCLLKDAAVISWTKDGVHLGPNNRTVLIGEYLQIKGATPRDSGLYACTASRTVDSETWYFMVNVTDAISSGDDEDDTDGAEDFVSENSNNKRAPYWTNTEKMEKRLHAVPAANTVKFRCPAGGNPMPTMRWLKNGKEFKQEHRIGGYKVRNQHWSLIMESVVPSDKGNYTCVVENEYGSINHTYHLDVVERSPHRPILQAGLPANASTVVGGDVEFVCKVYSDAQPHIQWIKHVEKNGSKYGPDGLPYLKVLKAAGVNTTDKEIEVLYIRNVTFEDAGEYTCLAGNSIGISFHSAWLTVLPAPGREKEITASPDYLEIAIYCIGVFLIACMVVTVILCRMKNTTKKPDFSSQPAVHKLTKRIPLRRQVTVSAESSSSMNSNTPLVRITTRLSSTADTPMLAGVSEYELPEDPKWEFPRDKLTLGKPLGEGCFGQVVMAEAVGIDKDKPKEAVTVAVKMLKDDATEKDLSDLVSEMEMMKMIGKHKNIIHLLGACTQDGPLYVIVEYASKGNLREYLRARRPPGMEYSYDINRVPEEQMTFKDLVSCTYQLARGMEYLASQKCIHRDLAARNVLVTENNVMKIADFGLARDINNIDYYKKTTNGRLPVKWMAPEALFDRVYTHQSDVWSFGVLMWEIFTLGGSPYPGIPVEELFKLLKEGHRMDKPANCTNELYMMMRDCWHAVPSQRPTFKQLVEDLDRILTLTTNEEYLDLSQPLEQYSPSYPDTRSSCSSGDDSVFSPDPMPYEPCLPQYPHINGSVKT

[9] = target: each individual kinase of the panel (Homo sapiens, UniProt Q14289)
[10] = target: each individual kinase of the panel (Homo sapiens, UniProt P29317)
[11] = target: each individual kinase of the panel (Mus musculus, UniProt P47809)
Sequence of each individual kinase of the panel (Mus musculus, UniProt P47809) (P47809 2-397 limits assumed): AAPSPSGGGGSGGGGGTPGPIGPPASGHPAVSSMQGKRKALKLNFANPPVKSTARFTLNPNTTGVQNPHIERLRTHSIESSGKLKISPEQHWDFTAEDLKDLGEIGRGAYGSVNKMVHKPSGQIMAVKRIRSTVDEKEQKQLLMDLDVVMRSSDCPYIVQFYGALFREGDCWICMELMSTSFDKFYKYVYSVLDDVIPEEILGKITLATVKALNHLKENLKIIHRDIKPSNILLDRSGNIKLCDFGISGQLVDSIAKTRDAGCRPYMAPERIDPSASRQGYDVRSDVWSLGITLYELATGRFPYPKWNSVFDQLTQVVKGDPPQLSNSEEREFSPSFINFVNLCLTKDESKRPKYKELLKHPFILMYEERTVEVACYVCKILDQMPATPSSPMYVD

[12] = target: each individual kinase of the panel (Homo sapiens, UniProt Q16539)
Sequence of each individual kinase of the panel (Homo sapiens, UniProt Q16539) (Q16539 2-360 limits assumed): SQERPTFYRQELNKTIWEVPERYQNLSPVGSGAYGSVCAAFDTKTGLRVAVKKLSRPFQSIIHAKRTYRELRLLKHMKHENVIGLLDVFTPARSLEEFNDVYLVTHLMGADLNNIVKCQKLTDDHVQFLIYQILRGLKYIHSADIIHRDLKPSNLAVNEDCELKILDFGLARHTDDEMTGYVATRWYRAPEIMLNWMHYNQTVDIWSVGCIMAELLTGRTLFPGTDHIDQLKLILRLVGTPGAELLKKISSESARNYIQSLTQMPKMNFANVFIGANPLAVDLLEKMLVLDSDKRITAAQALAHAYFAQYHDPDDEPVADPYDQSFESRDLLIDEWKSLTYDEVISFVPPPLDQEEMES

[13] = target: each individual kinase of the panel (Homo sapiens, UniProt P41743)
Sequence of each individual kinase of the panel (Homo sapiens, UniProt P41743) (P41743 2-596 limits assumed): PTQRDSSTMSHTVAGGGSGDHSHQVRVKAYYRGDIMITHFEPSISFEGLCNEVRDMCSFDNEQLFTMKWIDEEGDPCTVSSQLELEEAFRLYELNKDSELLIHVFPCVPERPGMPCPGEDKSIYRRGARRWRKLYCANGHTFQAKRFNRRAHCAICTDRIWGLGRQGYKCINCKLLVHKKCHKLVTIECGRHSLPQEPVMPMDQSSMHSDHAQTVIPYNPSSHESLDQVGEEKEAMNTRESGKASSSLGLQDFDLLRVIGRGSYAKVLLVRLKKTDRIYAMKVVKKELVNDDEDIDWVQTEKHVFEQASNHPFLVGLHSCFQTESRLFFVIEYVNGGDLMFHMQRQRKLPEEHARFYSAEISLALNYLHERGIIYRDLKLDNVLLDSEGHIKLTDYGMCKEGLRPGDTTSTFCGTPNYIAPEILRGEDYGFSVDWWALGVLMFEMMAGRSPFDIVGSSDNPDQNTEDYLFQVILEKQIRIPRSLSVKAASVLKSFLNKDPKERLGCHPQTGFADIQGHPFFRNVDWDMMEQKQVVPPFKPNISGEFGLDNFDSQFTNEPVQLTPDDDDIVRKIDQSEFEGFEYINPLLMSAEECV

[14] = target: each individual kinase of the panel (Homo sapiens, UniProt O96017)

CAMK4 percentage of activity [1]: 2%
MUSK percentage of activity [2]: −6%
SRPK2 percentage of activity [3]: 36%
AKT3 percentage of activity [4]: 0%
CHK2(1157T) (h) percentage of activity [5]: 3%
STK33 percentage of activity [6]: 0%
BTK percentage of activity [7]: −5%
FGFR2 (N549H) percentage of activity [8]: 4%
Pyk2 percentage of activity [9]: −3%
EPHA2 percentage of activity [10]: 2%
MKK4(m) percentage of activity [11]: −2%
p38-alpha percentage of activity [12]: 1%
PRKCI percentage of activity [13]: −5%
CHK2 percentage of activity [14]: 5%
SMILES: C#Cc1cccc(Nc2nc3cc(C(=O)O)ccc3c3cncnc23)c1 [drawing 1135]
